This is an account of results in patent US7998972B2, “1H-imidazo[4,5-c]quinoline derivatives in the treatment of protein kinase dependent diseases” (Novartis AG, priority 2002, dated 2011).

The target in this assay is PKB/Akt (Homo sapiens, UniProt P31749). Description: Inhibition of PKB/Akt in vitro. The format is biochemical. To be noted: PDK1-activated GST-PKB, LRRPRTRSFS peptide, 20 μM ATP; read-out: IC50 range class, inhibition of PKB/Akt in vitro. Here is the method:
The activity as inhibitor of PKB can be determined as follows:
To fully activate PKB, the enzyme is exposed to catalytic amounts of PDK1. GST-PKB (100 ng, Specific Activity: 0.2 nmoles/mg/mins) is incubated for 30 min at room temperature (rt) with purified recombinant GST-PDK1 (1 ng, SA: 2 nmoles/min/mg). The activation is performed as follows: 0.1 μg of GST-PDK1 (0.05 μl) and 10 μg of GST-PKB (0.45 μl) are mixed in a total volume of 0.75 μl containing 15 μM ATP, 3 mM MgCl2, 20 mM Hepes (pH 7.6) for 30 mins at rt. The reaction is subsequently stopped by adding 0.25 μl containing 30% glycerol (w/w) and 0.06 μl of 500 mM EDTA. 100-500 ng (0.01-0.05 μl) activated GST-PKB is incubated in a final volume of 30 μl with 10 μM of the LRRPRTRSFS peptide, 10 mM Mg-acetate, 50 mM MOPS (PH 7.5), 1 mM DTT and 300 μg/ml BSA, 20 μM ATP (0.1 μCi gamma-^33P-ATP). The reaction is carried out for 30 min at rt in the presence of either 1% DMSO or the text compound of the formula I at the required concentration in 1% DMSO. The reaction is terminated by the addition of 20 μl 125 mM EDTA. 30 ill of each sample is spotted onto P81 Whatman and the paper squares processed as described in Ferrari, S. and Thomas, G. (1991) Meth. Enzymol. 200, 159-169. IC50 values are calculated by linear regression analysis of the percentage inhibition of each compound in duplicate.

Sequence of PKB/Akt (P31749 whole entry): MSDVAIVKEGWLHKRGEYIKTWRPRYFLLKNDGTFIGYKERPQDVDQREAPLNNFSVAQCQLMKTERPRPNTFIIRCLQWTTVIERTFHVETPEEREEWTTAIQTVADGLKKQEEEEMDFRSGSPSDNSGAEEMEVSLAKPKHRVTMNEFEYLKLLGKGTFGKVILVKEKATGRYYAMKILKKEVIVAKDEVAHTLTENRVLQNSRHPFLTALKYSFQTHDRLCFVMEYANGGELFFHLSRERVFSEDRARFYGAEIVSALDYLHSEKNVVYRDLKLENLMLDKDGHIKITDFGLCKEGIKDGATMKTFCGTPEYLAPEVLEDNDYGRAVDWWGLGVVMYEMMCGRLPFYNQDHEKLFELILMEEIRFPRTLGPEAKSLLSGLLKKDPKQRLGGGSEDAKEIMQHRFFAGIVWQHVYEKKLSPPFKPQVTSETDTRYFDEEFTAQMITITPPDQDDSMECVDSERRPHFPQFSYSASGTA

For the compound `Fc1ccccc1-n1cnc2cnc3ccc(-c4ccccc4)cc3c21` [Example 54, 1-(2-Fluoro-phenyl)-8-phenyl-1H-imidazo[4,5-c]quinoline], the IC50 was 1000 to 2000 nM.

Consider `COc1ccc(-c2ccc3ncc4ncn(-c5ccccc5Cl)c4c3c2)cc1` [Example 137, 1-(2-Chloro-phenyl)-8-(4-methoxy-phenyl)-1H-imidazo[4,5-c]quinoline], for which the IC50 was in the range of 1000 to 2000 nM.
